Values after ≈ are worked out from the molar mass of the structure shown.

Assay [1] relates to Mycobacterium tuberculosis. Nature of the assay: Antimycobacterial activity against isoniazid/rifampicin-resistant Mycobacterium tuberculosis isolate 16995 after 7 days by microplate alamar blue assay. Type of assay: functional. The settings on record: isolate 16995, 168 h. (The colour change of resazurin is a common sign of viable cells or microbes.)
Assay [2] deals with Mycobacterium tuberculosis. Description: Antimycobacterial activity against isoniazid/rifampicin-resistant Mycobacterium tuberculosis isolate 16833 after 7 days by microplate alamar blue assay. It is filed as functional. The settings on record: isolate 16833, 168 h.

For the compound `CCc1nc2ccc(Cl)cn2c1C(=O)NCc1ccc2c(c1)CCN(CCc1ccc(C(F)(F)F)cn1)C2`, the MIC in assay [1] and in assay [2] was under 0.035 µM each time.

With `CCc1nc2ccc(Cl)cn2c1C(=O)NCc1ccc2c(c1)CCN(Cc1ccc(C(F)(F)F)nc1)C2`, the MIC (in general, the smallest concentration in the dilution series that meets the test's criterion for growth inhibition) was 0.047 µM (≈ 0.0248 µg/mL) in assay [1] and under 0.035 µM in assay [2].

Turning to `CO[C@H]1/C=C/O[C@@]2(C)Oc3c(C)c(O)c4c(O)c(c(/C=N/N5CCN(C)CC5)c(O)c4c3C2=O)NC(=O)/C(C)=C\C=C\[C@H](C)[C@H](O)[C@@H](C)[C@@H](O)[C@@H](C)[C@H](OC(C)=O)[C@@H]1C` [RIFAMPIN], the MIC in assay [1] and in assay [2] was over 40 µM each time.

As for `CCc1nc2ccc(Cl)cn2c1C(=O)NCc1ccc2c(c1)CCN(Cc1cc(F)cc(F)c1)C2`, the MIC in assay [1] and in assay [2] was under 0.035 µM each time.

For the compound `NNC(=O)c1ccncc1` [ISONIAZID], the MIC in assay [1] and in assay [2] was over 40 µM in each case.

In the case of `CCc1nc2ccc(Cl)cn2c1C(=O)NCc1ccc2c(c1)CCN(Cc1ccc(C(F)(F)F)cn1)C2`, the MIC stood at 0.046 µM (≈ 0.0243 µg/mL) in assay [1] and 0.049 µM (≈ 0.0259 µg/mL) in assay [2].

For `CCc1nc2ccc(Cl)cn2c1C(=O)NCc1ccc2c(c1)CCN(Cc1ccc(F)cc1)C2`, the MIC in assay [1] and in assay [2] was under 0.035 µM throughout.

As for `CCc1nc2cc(Cl)ccn2c1C(=O)NCc1ccc2c(c1)CCN(CCc1ccc(C(F)(F)F)cn1)C2`, the MIC in assay [1] is 0.061 µM (≈ 0.0331 µg/mL); in assay [2] it was under 0.035 µM.

With `CCc1nc2ccc(Cl)cn2c1C(=O)NCc1ccc2c(c1)CCN(Cc1ccc(C(C)(C)C)cc1)C2`, the MIC in assay [1] and in assay [2] was under 0.035 µM in each case.

For `CCc1nc2ccc(Cl)cn2c1C(=O)NCc1ccc2c(c1)CCN(Cc1ccc(OC)cc1)C2`, the MIC in assay [1] and in assay [2] was under 0.035 µM each time.

For `CCc1nc2cc(Cl)ccn2c1C(=O)NCc1ccc2c(c1)CCN(Cc1cc(F)cc(F)c1)C2`, the values for the MIC in assay [1] and in assay [2] were 0.11 µM (≈ 0.0544 µg/mL) and 0.095 µM (≈ 0.047 µg/mL), respectively.

For `CCc1nc2ccc(Cl)cn2c1C(=O)NCc1ccc2c(c1)CCN(Cc1ccc(C(F)(F)F)cc1)C2`, the MIC in assay [1] and in assay [2] was under 0.035 µM in each case.

`O=c1nc(N2CCN(CC3CCCCC3)CC2)sc2c([N+](=O)[O-])cc(C(F)(F)F)cc12` [MACOZINONE]: the MIC in assay [1] and in assay [2] was under 0.035 µM throughout.

On to `CCc1nc2ccc(Cl)cn2c1C(=O)NCc1ccc2c(c1)CN(Cc1ccc(OC(F)(F)F)cc1)C2`, for which the MIC in assay [1] and in assay [2] was under 0.035 µM in each case.

Consider `CCc1nc2ccc(Cl)cn2c1C(=O)NCc1ccc(N2CCC(c3ccc(OC(F)(F)F)cc3)CC2)cc1` [TELACEBEC], for which the MIC in assay [1] and in assay [2] was under 0.035 µM throughout.

Regarding `CCc1nc2ccc(Cl)cn2c1C(=O)NCc1ccc2c(c1)CN(C(C)c1ccc(OC(F)(F)F)cc1)C2` (centres undefined), the minimal inhibitory concentration (MIC) in assay [1] and in assay [2] was under 0.035 µM in each case.

As to `CCc1nc2cc(Cl)ccn2c1C(=O)NCc1ccc2c(c1)CCN(Cc1ccc([N+](=O)[O-])o1)C2`, the MIC in assay [1] stood at 0.44 µM (≈ 0.217 µg/mL); in assay [2], 1.24 µM (≈ 0.612 µg/mL).

Regarding `CCc1nc2ccc(Cl)cn2c1C(=O)NCc1ccc2c(c1)CCN(CCc1ccc(C(F)(F)F)nc1)C2`, the minimal inhibitory concentration (MIC) in assay [1] and in assay [2] was under 0.035 µM in each case.

Regarding `CCc1nc2ccc(Cl)cn2c1C(=O)NCc1ccc2c(c1)CCN(Cc1ccc(Br)cc1)C2`, the MIC in assay [1] and in assay [2] was under 0.035 µM throughout.

As for `CCc1nc2cc(Cl)ccn2c1C(=O)NCc1ccc2c(c1)CCN(Cc1ccc(C(C)(C)C)cc1)C2`, the MIC in assay [1] and in assay [2] was under 0.035 µM each time.

For `CCc1nc2cc(Cl)ccn2c1C(=O)NCc1ccc2c(c1)CCN(Cc1ccc(OC)cc1)C2`, the MIC was determined as 0.9 µM (≈ 0.44 µg/mL) in assay [1] and 0.096 µM (≈ 0.0469 µg/mL) in assay [2].

Take `CCc1nc2ccc(Cl)cn2c1C(=O)NCc1ccc2c(c1)CCN(Cc1ccc(C)cc1)C2`: the MIC in assay [1] and in assay [2] was under 0.035 µM each time.
